Experimental data from patent US7585874B2, “Aryl-isoxazol-4-yl-imidazo[1,2-a]pyridine derivatives” (Hoffmann-La Roche Inc., priority 2006, dated 2009).

Each compound was assayed against T1, GABA A receptor α5β3γ2 (Homo sapiens, UniProt P18507+P31644) (assay: [3H]flumazenil competition binding, membranes of HEK293 cells expressing human GABA A α5β3γ2). Details: human α5β3γ2 in HEK293 (transiently transfected); 0.5 nM [3H]flumazenil; 1 hour at 4° C.; means of two determinations; read-out: Ki[nM]hα5.
T1 construct: expressed in transfected cells; host or cells: HEK293 (transiently transfected; membranes)
Protocol: The affinity of compounds at GABA A receptor subtypes was measured by competition for [3H]flumazenil (85 Ci/mmol; Roche) binding to HEK293 cells expressing rat (stably transfected) or human (transiently transfected) receptors of composition α1β3γ2, α2β3γ2, α3β3γ2 and α5β3γ2.
Cell pellets were suspended in Krebs-tris buffer (4.8 mM KCl, 1.2 mM CaCl2, 1.2 mM MgCl2, 120 mM NaCl, 15 mM Tris; pH 7.5; binding assay buffer), homogenized by polytron for ca. 20 sec on ice and centrifuged for 60 min at 4° C. (50000 g; Sorvall, rotor: SM24=20000 rpm). The cell pellets were resuspended in Krebs-tris buffer and homogenized by polytron for ca. 15 sec on ice. Protein was measured (Bradford method, Bio-Rad) and aliquots of 1 mL were prepared and stored at −80° C.
Radioligand binding assays were carried out in a volume of […] (96-well plates) which contained […] of cell membranes, [3H]flumazenil at a concentration of 1 nM for α1, α2, α3 subunits and 0.5 nM for α5 subunits and the test compound in the range of […]. Nonspecific binding was defined by 10^−5 M diazepam and typically represented less than 5% of the total binding. Assays were incubated to equilibrium for 1 hour at 4° C. and harvested onto GF/C uni-filters (Packard) by filtration using a Packard harvester and washing with ice-cold wash buffer 50 mM Tris; pH 7.5). After drying, filter-retained radioactivity was detected by liquid scintillation counting. Ki values were calculated using Excel-Fit (Microsoft) and are the means of two determinations.

Compound	Ki [nM]
C#Cc1ccn2cc(-c3c(-c4ccccc4)noc3C)nc2c1 [Example 45, 7-Ethynyl-2-(5-methyl-3-phenyl-isoxazol-4-yl)-imidazo[1,2-a]pyridine]	189
Cc1onc(-c2ccccc2)c1-c1cn2ccccc2n1 [Example 1, 2-(5-Methyl-3-phenyl-isoxazol-4-yl)-imidazo[1,2-a]pyridine]	167
Cc1onc(-c2ccccc2)c1-c1cn2cc(C#N)ccc2n1 [Example 28, 2-(5-Methyl-3-phenyl-isoxazol-4-yl)-imidazo[1,2-a]pyridine-6-carbonitrile]	173
Cc1onc(-c2ccccc2)c1-c1cn2ccc(C(=O)NCCCN3CCOCC3)cc2n1 [Example 19, 2-(5-Methyl-3-phenyl-isoxazol-4-yl)-imidazo[1,2-a]pyridine-7-carboxylic acid (3-morpholin-4-yl-propyl)-amide]	124
Cc1onc(-c2ccccc2)c1-c1cn2cc(F)ccc2n1 [Example 25, 6-Fluoro-2-(5-methyl-3-phenyl-isoxazol-4-yl)-imidazo[1,2-a]pyridine]	154
Cc1ccn2cc(-c3c(-c4ccccc4)noc3C)nc2c1 [Example 8, 7-Methyl-2-(5-methyl-3-phenyl-isoxazol-4-yl)-imidazo[1,2-a]pyridine]	81.7
C#Cc1ccc2nc(-c3c(-c4ccccc4)noc3C)cn2c1 [Example 53, 6-Ethynyl-2-(5-methyl-3-phenyl-isoxazol-4-yl)-imidazo[1,2-a]pyridine]	164
Cc1onc(-c2ccccc2)c1-c1cn2cc(C(=O)NCc3ccncc3)ccc2n1 [Example 42, 2-(5-Methyl-3-phenyl-isoxazol-4-yl)-imidazo[1,2-a]pyridine-6-carboxylic acid (pyridin-4-ylmethyl)-amide]	85.5
Cc1onc(-c2ccccc2)c1-c1cn2ccc(C(=O)NC3CCC3)cc2n1 [Example 14, 2-(5-Methyl-3-phenyl-isoxazol-4-yl)-imidazo[1,2-a]pyridine-7-carboxylic acid cyclobutylamide]	168
CCc1ccn2cc(-c3c(-c4ccccc4)noc3C)nc2c1 [Example 9, 7-Ethyl-2-(5-methyl-3-phenyl-isoxazol-4-yl)-imidazo[1,2-a]pyridine]	101
COC(=O)c1ccn2cc(-c3c(-c4ccccc4)noc3C)nc2c1 [Example 10, 2-(5-Methyl-3-phenyl-isoxazol-4-yl)-imidazo[1,2-a]pyridine-7-carboxylic acid methyl ester]	150
Cc1onc(-c2ccccc2)c1-c1cn2ccc(C(=O)NCCN3CCOCC3)cc2n1 [Example 18, 2-(5-Methyl-3-phenyl-isoxazol-4-yl)-imidazo[1,2-a]pyridine-7-carboxylic acid (2-morpholin-4-yl-ethyl)-amide]	159
Cc1onc(-c2ccccc2)c1-c1cn2ccc(C(=O)NCc3ccncc3)cc2n1 [Example 22, 2-(5-Methyl-3-phenyl-isoxazol-4-yl)-imidazo[1,2-a]pyridine-7-carboxylic acid (pyridin-4-ylmethyl)-amide]	199
Cc1onc(-c2ccccc2)c1-c1cn2ccc(NC(=O)C3CCCC3)cc2n1 [Example 50, Cyclopentanecarboxylic acid [2-(5-methyl-3-phenyl-isoxazol-4-yl)-imidazo[1,2-a]pyridin-7-yl]-amide]	85.9
COC(=O)c1ccc2nc(-c3c(-c4ccccc4)noc3C)cn2c1 [Example 29, 2-(5-Methyl-3-phenyl-isoxazol-4-yl)-imidazo[1,2-a]pyridine-6-carboxylic acid methyl ester]	117

Stronger by Ki, values ahead:

Ki [nM]	Compound
59.8	Cc1onc(-c2ccccc2)c1-c1cn2cc(C(=O)NCCO)ccc2n1 [Example 36, 2-(5-Methyl-3-phenyl-isoxazol-4-yl)-imidazo[1,2-a]pyridine-6-carboxylic acid (2-hydroxy-ethyl)-amide]
23.6	Cc1onc(-c2ccccc2)c1-c1cn2cc(C(=O)NC3CC3)ccc2n1 [Example 33, 2-(5-Methyl-3-phenyl-isoxazol-4-yl)-imidazo[1,2-a]pyridine-6-carboxylic acid cyclopropylamide]
19.8	Cc1onc(-c2ccccc2)c1-c1cn2cc(C(=O)NC3CCC3)ccc2n1 [Example 34, 2-(5-Methyl-3-phenyl-isoxazol-4-yl)-imidazo[1,2-a]pyridine-6-carboxylic acid cyclobutylamide]
5.5	c1ccc(-c2noc(C3CC3)c2-c2cn3ccccc3n2)cc1 [Example 68, 2-(5-Cyclopropyl-3-phenyl-isoxazol-4-yl)-imidazo[1,2-a]pyridine]
48.7	Cc1onc(-c2ccccc2)c1-c1cn2cc(N3CCCC3=O)ccc2n1 [Example 63, 1-[2-(5-Methyl-3-phenyl-isoxazol-4-yl)-imidazo[1,2-a]pyridin-6-yl]-pyrrolidin-2-one]
13.4	Cc1onc(-c2ccccc2)c1-c1cn2c(-n3ccnc3)cccc2n1 [Example 67, 5-Imidazol-1-yl-2-(5-methyl-3-phenyl-isoxazol-4-yl)-imidazo[1,2-a]pyridine]
36.9	Cc1onc(-c2ccccc2)c1-c1cn2cc(C(=O)NCc3ccco3)ccc2n1 [Example 43, 2-(5-Methyl-3-phenyl-isoxazol-4-yl)-imidazo[1,2-a]pyridine-6-carboxylic acid (furan-2-ylmethyl)-amide]
20.2	Cc1onc(-c2ccccc2)c1-c1cn2cccc(O)c2n1 [Example 5, 2-(5-Methyl-3-phenyl-isoxazol-4-yl)-imidazo[1,2-a]pyridin-8-ol]
15.8	Cc1onc(-c2ccccc2)c1-c1cn2cc(C(=O)NC3CCCC3)ccc2n1 [Example 35, 2-(5-Methyl-3-phenyl-isoxazol-4-yl)-imidazo[1,2-a]pyridine-6-carboxylic acid cyclopentylamide]
23.9	Cc1onc(-c2ccccc2)c1-c1cn2cc(C(=O)NCC3CC3)ccc2n1 [Example 31, 2-(5-Methyl-3-phenyl-isoxazol-4-yl)-imidazo[1,2-a]pyridine-6-carboxylic acid cyclopropylmethyl-amide]
76.2	Cc1onc(-c2ccccc2)c1-c1cn2ccc(NC(=O)c3cccnc3)cc2n1 [Example 51, N-[2-(5-Methyl-3-phenyl-isoxazol-4-yl)-imidazo[1,2-a]pyridin-7-yl]-nicotinamide]
41.2	Cc1onc(-c2ccccc2)c1-c1cn2cc(C(=O)NCc3cccnc3)ccc2n1 [Example 41, 2-(5-Methyl-3-phenyl-isoxazol-4-yl)-imidazo[1,2-a]pyridine-6-carboxylic acid (pyridin-3-ylmethyl)-amide]
27	Cc1onc(-c2ccccc2)c1-c1cn2cc(N3CCC3=O)ccc2n1 [Example 62, 1-[2-(5-Methyl-3-phenyl-isoxazol-4-yl)-imidazo[1,2-a]pyridin-6-yl]-azetidin-2-one]
50.7	Cc1onc(-c2ccccc2)c1-c1cn2ccc(NC(=O)Cc3cccnc3)cc2n1 [Example 47, N-[2-(5-Methyl-3-phenyl-isoxazol-4-yl)-imidazo[1,2-a]pyridin-7-yl]-2-pyridin-3-yl-acetamide]
